From patent US11332485B2, “Penicillin-binding protein inhibitors” (priority 2017, dated 2022) come the findings set out here.

SMILES strings stand for the structures.

The experiment relates to E. coli DH5α/pLBII-CTX-M15. The experiment can be described thus: Broth microdilution MIC assay, engineered strain producing CTX-M15. Format: cell-based, Escherichia coli. Particulars: Escherichia coli, read-out: E. coli DH5α/pLBII-CTX-M15 Microbiological Activity (MIC). The gist of the method: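 CLSI broth microdilution in cation-supplemented Mueller-Hinton broth, 2-fold compound dilutions, 5×10^5 CFU/mL inoculum, 16-20 h at 37° C, MIC read visually as lowest concentration without growth. E. coli DH5α carries CTX-M15 on pLBII under Lac promoter, or empty pLBII as control.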
On the technique in general: In broth dilution the organism is exposed to a series of concentrations in liquid medium.

In the case of `CCN1CCN(C(=O)NC(C(=O)N[C@H]2Cc3cccc(C(=O)O)c3OB2O)c2csc(N)n2)C(=O)C1=O` (stereo partly drawn) [Example 12, (3R)-3-(2-(2-aminothiazol-4-yl)-2-(4-ethyl-2,3-dioxopiperazine-1-carboxamido)acetamido)-2-hydroxy-3,4-dihydro-2H-benzo[e][1,2]oxaborinine-8-carboxylic acid], the MIC was 8 to 16 µg/mL.
